Patent US6790992B2, “Scyphostatin analogues as SMase inhibitors” (Biofrontera Pharmaceuticals GmbH, priority 2002, dated 2004)

Experiments:
[1] = tested on: human monocytes; experiment: Antiapoptotic activity in TNFα-treated human monocytes (YOPRO-1 staining); assay type: cell-based; settings: pretreatment 30 min, 0.1 μm, then TNFα 4 hours; average of 5 experiments; values only in FIG. 3
Method: In addition, part of the cells are pretreated with compound 13 (30 min., 0.1 μm). The percentage of apoptotic cells is determined in all of the samples by YOPRO-1 staining^10. Average values from 5 experiments.

[2] = tested on: sphingomyleinase activity of mmLDL-stimulated monocytes; experiment: Sphingomyelinase activity in mmLDL-stimulated human monocytes; assay type: cell-based; settings: compound 13 0.1-0 μm, 30 min pretreatment, then mmLDL 4 hours; average of 5 experiments; values only in FIG. 4
Method: Average values from 5 individual experiments.
90 nM BODIPY-FL-C5 sphingomylein (molecular probes) are dissolved in 200 μl ethanol, then injected into 10 ml PBS containing 0.75 mg/ml BSA. The solution is dialyzed extensively against PBS, the resulting dialyzate is sterile-filtered and diluted 1:1 using RPMI medium. Together with the solution a monolayer of human monocytes' is incubated with 5% CO2 at 37° C. for 4 hours, washed twice with 5 ml PBS, admixed with new medium and then incubated at the corresponding concentrations of compound (13) for 30 minutes. The pretreated cells are treated with slightly modified low-density lipoprotein (mmLDL)^10 for 4 hours and extracted according to Bligh and Dyer^11. The enzyme activity is determined by the ratio of BODIPY-FL-C5—sphingomyelin to BODIPY-FL-C5 ceramide^12.

[3] = Chemical, acid and redox stability; assay type: physicochemical
[4] = background statement, cited from earlier work

Compound | Antiapoptotic activity (percentage of apoptotic cells) [1] | Inhibitory effect on the sphingomyleinase activity [2] | Chemical stability (e.g. stability in acidic solutions) ([3]; epoxide-free analogues, compared with natural scyphostatin) | Stability at pH 2 ([3]; pH values of 2 at 40° C. for a period of several hours) | Chemical and metabolic stability ([4]; natural scyphostatin) | Stability in acid ([4]; natural substance)
CCCCCCCCCCCCCCCC(=O)N[C@H](CO)C[C@]1(O)CCC=CC1=O [compound 13, hexadecanoic acid-[1-hydroxymethyl-2-(1-hydroxy-2-oxo-cyclohex-3-enyl)ethyl]amide] | Antiapoptotic activity | Inhibitory effect | increased chemical stability | stable |  | 
CC[C@@H](C)/C=C(\C)C[C@@H](C)C[C@@H](C)/C=C/C=C/C=C/C(=O)N[C@H](CO)C[C@@]1(O)C(=O)C=C[C@@H]2O[C@@H]21 [scyphostatin] |  |  |  |  | chemically and metabolically very unstable | unstable in acid
